# Experimental data taken from patent US9561231B2 (AbbVie Inc., priority 2012, dated 2017).
# Tests used:
# [1] = target: T1, first (BD1: amino acids K57-E168) bromodomain of BRD4 (Homo sapiens, UniProt O60885); experiment: TR-FRET bromodomain binding assay, BRD4 BD1; conditions: TR-FRET assay protocol (A-G, compound concentration range); Ki calculated from IC50, probe Kd and probe concentration; read-out: TR-FRET Binding Ki: BRD4 (BDI_K57-E168)
# T1 construct: His-tagged first (BD1: amino acids K57-E168)
# In short: (§1)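 Values are Ki: IC50s from TR-FRET competition with an Alexa647-labeled BET-inhibitor probe were converted using probe Kd and probe concentration. Purified His-tagged bromodomain; pH 6.0 sodium phosphate buffer.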
# [2] = system: breast cancer cell line MX-1; experiment: MX-1 cell line proliferation assay (3-day); type: cell-based; conditions: Homo sapiens, MX1; MX-1 cells, 72 h incubation, Cell Titer Glo; read-out: Cellular proliferation: EC50
# Protocol: The impact of compounds of the Examples on cancer cell proliferation was determined using the breast cancer cell line MX-1 (ATCC) in a 3-day proliferation assay. MX-1 cells were maintained in RPMI supplemented with 10% FBS at 37° C. and an atmosphere of 5% CO2. For compound testing, MX-1 cells were plated in 96-well black bottom plates at a density of 5000 cells/well in 90 μL of culture media and incubated at 37° overnight to allow cell adhesion and spreading. Compound dilution series were prepared in DMSO via a 3-fold serial dilution from 3 mM to 0.1 μM. The DMSO dilution series were then diluted 1:100 in phosphate buffered saline, and 10 μL of the resulted solution were added to the appropriate wells of the MX-1 cell plate. The final compound concentrations in the wells were 3, 1, 0.3, 0.1, 0.03, 0.01, 0.003, 0.001, 0.0003 and 0.0001 μM.
# Luminescence readings from the Cell Titer Glo assay were normalized to the DMSO treated cells and analyzed using the GraphPad Prism software with sigmoidal curve fitting to obtain EC50s.
# [3] = target: T2, second (BD2: amino acids E352-E168) bromodomain of BRD4 (Homo sapiens, UniProt O60885); experiment: TR-FRET bromodomain binding assay, BRD4 BD2; conditions: TR-FRET assay protocol (A-G, compound concentration range); Ki calculated from IC50, probe Kd and probe concentration; read-out: TR-FRET Binding Ki: BRD4 (BDII_E352-M457)
# T2 construct: protocol
# In short: as §1
Ki [1],EC50 [2],Ki [3],SMILES
264 nM,444 nM,63.5 nM,"COc1cc(-c2cc(=O)n(C)nc2-c2cc(NS(C)(=O)=O)ccc2Oc2ccccc2)ccn1 [Example 58, N-{3-[4-(2-methoxypyridin-4-yl)-1-methyl-6-oxo-1,6-dihydropyridazin-3-yl]-4-phenoxyphenyl}methanesulfonamide]"
9790 nM,> 30000 nM,2110 nM,"CCOC(=O)c1cccc(-c2cc(=O)n(C)nc2-c2ccccc2Oc2ccccc2)c1 [Example 59, ethyl 3-[1-methyl-6-oxo-3-(2-phenoxyphenyl)-1,6-dihydropyridazin-4-yl]benzoate]"
170 nM,> 3000 nM,413 nM,"CN1CCN(Cc2cccc(-c3cc(=O)n(C)nc3-c3ccccc3Oc3ccccc3)c2)CC1 [Example 60, 2-methyl-5-{3-[(4-methylpiperazin-1-yl)methyl]phenyl}-6-(2-phenoxyphenyl)pyridazin-3(2H)-one]"
33.1 nM,911 nM,48.9 nM,"CN1CCN(Cc2ccc(-c3cc(=O)n(C)nc3-c3ccccc3Oc3ccccc3)cc2)CC1 [Example 61, 2-methyl-5-{4-[(4-methylpiperazin-1-yl)methyl]phenyl}-6-(2-phenoxyphenyl)pyridazin-3(2H)-one]"
7.49 nM,281 nM,5.13 nM,"CN1CCN(Cc2ccc(-c3cc(=O)n(C)nc3-c3cc(NS(C)(=O)=O)ccc3Oc3ccccc3)cc2)CC1 [Example 62, N-[3-(1-methyl-4-{4-[(4-methylpiperazin-1-yl)methyl]phenyl}-6-oxo-1,6-dihydropyridazin-3-yl)-4-phenoxyphenyl]methanesulfonamide]"
85.2 nM,739 nM,23.9 nM,"Cc1ccc(-c2cc(=O)n(C)nc2-c2cc(NS(C)(=O)=O)ccc2Oc2ccccc2)cc1 [Example 63, N-{3-[1-methyl-4-(4-methylphenyl)-6-oxo-1,6-dihydropyridazin-3-yl]-4-phenoxyphenyl}methanesulfonamide]"
141 nM,2480 nM,159 nM,"Cn1nc(-c2ccccc2Oc2ccccc2)c(-c2ccc(CN3CCOCC3)cc2)cc1=O [Example 66, 2-methyl-5-[4-(morpholin-4-ylmethyl)phenyl]-6-(2-phenoxyphenyl)pyridazin-3(2H)-one]"
70.8 nM,1730 nM,92.5 nM,"Cn1nc(-c2ccccc2Oc2ccccc2)c(-c2ccc(CN3CCCCC3)cc2)cc1=O [Example 67, 2-methyl-6-(2-phenoxyphenyl)-5-[4-(piperidin-1-ylmethyl)phenyl]pyridazin-3(2H)-one]"
63.1 nM,1110 nM,71.9 nM,"CC1CCN(Cc2ccc(-c3cc(=O)n(C)nc3-c3ccccc3Oc3ccccc3)cc2)CC1 [Example 68, 2-methyl-5-{4-[(4-methylpiperidin-1-yl)methyl]phenyl}-6-(2-phenoxyphenyl)pyridazin-3(2H)-one]"
98 nM,> 3000 nM,225 nM,"CCN(CC)Cc1ccc(-c2cc(=O)n(C)nc2-c2ccccc2Oc2ccccc2)cc1 [Example 69, 5-{4-[(diethylamino)methyl]phenyl}-2-methyl-6-(2-phenoxyphenyl)pyridazin-3(2H)-one]"
89.1 nM,815 nM,62 nM,"Cn1nc(-c2ccccc2Oc2ccccc2)c(-c2ccc(CN3CCNCC3)cc2)cc1=O [Example 70, 2-methyl-6-(2-phenoxyphenyl)-5-[4-(piperazin-1-ylmethyl)phenyl]pyridazin-3(2H)-one]"
62.2 nM,398 nM,133 nM,"Cn1nc(-c2ccccc2Oc2ccccc2)c(-c2ccc(CN3CCCC3)cc2)cc1=O [Example 71, 2-methyl-6-(2-phenoxyphenyl)-5-[4-(pyrrolidin-1-ylmethyl)phenyl]pyridazin-3(2H)-one]"
225 nM,3750 nM,128 nM,"CC(O)c1ccc(-c2cc(=O)n(C)nc2-c2ccccc2Oc2ccccc2)cc1 (stereo not drawn) [Example 72, 5-[4-(1-hydroxyethyl)phenyl]-2-methyl-6-(2-phenoxyphenyl)pyridazin-3(2H)-one]"
